Assay results taken from paper PMC8540140, “The Real Cytotoxic Effect of Artemisinins on Colon Cancer Cells in a Physiological Cell Culture Setting. How Composition of the Culture Medium Biases Experimental Findings” (Pharmaceuticals, 2021).
Read-outs that look alike come from different tables or passages of the source.

Assays:
[1] = tested on: SW480 human primary colon cancer cell line; experiment: MTT cytotoxicity assay, SW480; type: cell-based; details: 72 h, LA 20 or 40 µM, TRFi 50 µM where named in the label
Procedure: (§1) The human cell lines SW480 (primary colon cancer), SW620 (lymph node metastatic from the same patient as SW480), and HaCaT (immortalized keratinocyte) were obtained from the American Type Culture Collection (ATCC, Rockville, USA). SW480 and SW620 cells were grown in MEM (minimal essential medium, ThermoSci, USA), and HaCaT in DMEM high glucose (Dulbecco’s Modified Eagle’s Medium, Biowest SAS, France) supplemented with 10% FBS (fetal bovine serum), HEPES (20 mM), and antibiotics (100 U/mL of penicillin and 100 μg/mL of streptomycin). The cells were maintained in a humidified incubator at 37 °C/5% CO2 until 80–90% confluence was reached.
(§2) Next, the cells were harvested by treatment with 0.25% trypsin-0.02% EDTA (Gibco Life Technologies, Carslabad, CA USA) and seeded in 96-well plates (1 × 10^4 cells per well) for MTT assay or in 6-well plates (4 × 10^4 cells per well) for Trypan blue exclusion method. […] The cells treated only with 20 µM LA were used as a control. All experimental settings were repeated with holo-transferrin (TRFi) at pharmacological concentration (50 µM). All cells were cultured for a period of 72 h.
(§3) The cytotoxic effects of tested compounds were assessed by MTT (3-(4,5-dimethylthiazol-2-yl)-2,5-diphenyltetrazolium bromide) assay. This assay is based on the metabolic reduction of soluble MTT into an insoluble colored formazan product by mitochondrial dehydrogenase activity of viable cells. After 72 h incubation in the presence of experimental compounds the cells were incubated at 37 °C with MTT solution (0.5 mg/mL) for 4h. Obtained purple formazan product was dissolved in DMSO with isopropanol (1:1) and the optical density was measured at 570 nm. Each experiment was performed in triplicate. The cytotoxicity of compounds was presented as a percent of MTT reduced in treated cells vs. control cells. The relative MTT level (%) was calculated according formula [A]/[B] × 100. [A] express the absorbance of the test sample whereas [B] the absorbance of the control sample (untreated cells. IC50 values were calculated using CompuSyn version 1.0.

[2] = tested on: SW620 human metastatic colon cancer cell line; experiment: MTT cytotoxicity assay, SW620; type: cell-based; details: SW-620, 72 h, LA 20 or 40 µM, TRFi 50 µM where named in the label
Procedure: The cytotoxic effects of tested compounds were assessed by MTT (3-(4,5-dimethylthiazol-2-yl)-2,5-diphenyltetrazolium bromide) assay. […] Obtained purple formazan product was dissolved in DMSO with isopropanol (1:1) and the optical density was measured at 570 nm. […] The relative MTT level (%) was calculated according formula [A]/[B] × 100. [A] express the absorbance of the test sample whereas [B] the absorbance of the control sample (untreated cells. IC50 values were calculated using CompuSyn version 1.0.

[3] = tested on: HaCaT human immortal keratinocyte cell line; experiment: MTT cytotoxicity assay, HaCaT; type: cell-based; details: for IC50: Homo sapiens, HaCaT, MTT, 72 h; for cytotoxic effect on HaCaT cells: combination with LA40 and TRFi
Procedure: as §1, §2, §3

SW480 cells [4] = experiment: Trypan blue exclusion viability assay, SW480; type: cell-based, human; details: 8 µM with LA (40 µM), 72 h, TB assay
Procedure: as §2
(§4) After a 72 h incubation with serial concentration of experimental compounds the cells were washed in PBS and harvested with trypsin. The viability was estimated by trypan blue exclusion assay using an automated cell counter (Countess Invitrogen). Experiments were performed in triplicate.

SW620 cells [5] = experiment: Trypan blue exclusion viability assay, SW620; type: cell-based, human; details: 8 µM with LA (40 µM), 72 h, TB assay
Procedure: as §2, §4

SW620 cells [6] = experiment: FITC Annexin V/PI flow cytometry apoptosis assay, SW620; type: cell-based, human; details: for cells in late apoptosis SW620: with LA 40 and TRFi addition
Procedure: (§5) The cells were cultured and harvested under the conditions mentioned in Cell Culture and Treatment and seeded in 6-well plates (2 × 10^5 cells per well). […] The apoptotic effect of compounds was measured using the Annexin V:FITC assay kit (Sigma Aldrich) in accordance with the protocols provided. After 72 h treatment both floating and adherent cells were harvested. The floating cells were collected by centrifugation at 700× g for 5 min at 4 °C. Adherent cells were first trypsinized and then collected by centrifugation at 700× g for 5 min at 4 °C. Both fractions were resuspended in Annexin V binding buffer, pooled and incubated with FITC Annexin V and PI for 15 min at room temperature in the dark and analyzed by flow cytometry (Becton Dickinson). A total of 10,000 events were collected. Annexin V:FITC positive and PI negative cells were recognized as early apoptosis and Annexin V:FITC and PI positive cells as late apoptosis or necrosis.

[7] = FITC Annexin V/PI flow cytometry apoptosis assay, HaCaT; type: cell-based, human; details: human, HaCaT cells; read-out: Q1 viable cells HaCaT
Procedure: as §5

HaCaT cells = experiment: as above; type: cell-based, human; details: with LA 40 and TRFi addition
Procedure: as §5

SW480 cells [8] = experiment: FITC Annexin V/PI flow cytometry apoptosis assay, SW480; type: cell-based; details: Homo sapiens, SW480, 72 h; read-out: Q1 viable cells SW480
Procedure: as §5

SW948 cells = tested on: SW948 cells; set-up: method as in ref 36 (Lu et al. 2018); details: 48 h, ref 36 (Lu et al. 2018), cited from earlier work
HCT-116 cells = tested on: HCT-116 cells; set-up: method as in ref 37 (Lu et al. 2014); details: 40 μM, 72 h; ref 37 (Lu et al. 2014); cited from earlier work
[9] = tested on: IL-6 secreted by SW480 cells; experiment: Interleukin-6 ELISA in culture medium, SW480; type: cell-based, human; details: added to ART-LA or DHA-LA (20 and 40 µM), 72 h; all studied settings
Procedure: (§6) The level of interleukin-6 (IL-6) secreted by SW480 and SW620 cells was measured by commercial human IL-6 ELISA kits (Diaclon SAS, Besancon Cedex, France). […] The untreated cells were used as the control. The IL-6 level in a cell culture supernatant was determined by an enzyme-linked immunosorbent assay, according to the manufacturer’s protocol. The experiment was repeated three times.

[10] = tested on: IL-6 secreted by SW620 cells; experiment: Interleukin-6 ELISA in culture medium, SW620; type: cell-based, human; details: added to ART-LA or DHA-LA (20 and 40 µM), 72 h; all studied settings except ART-LA20
Procedure: as §6

[11] = with TRFi 50 µM, read-out: IC50 HaCaT at the presence of TRFi
[12] = LA 20 or 40 µM, TRFi 50 µM where named in the label, read-out: IC50 HaCaT

Row | Compound | IC50 [1] | IC50 [2] | IC50 [3, 11] | IC50 [3, 12] | cytotoxic effect on HaCaT cells [3] | viability SW480 (SW480 cells [4]) | viability SW620 (SW620 cells [5]) | cells in late apoptosis SW620 (SW620 cells [6]) | viability at 72 h, 2 µM [7] | late apoptosis HaCaT (HaCaT cells) | viability at 2 µM (SW480 cells [8]) | viability at 2 µM (SW620 cells [6]; Homo sapiens, SW-620, 72 h, read-out: Q1 viable cells SW620) | viability SW948 (SW948 cells; 30 µM) | viability SW948 (SW948 cells; 50 µM) | viability HCT-116 (HCT-116 cells) | effect of TRFi addition on IL-6 concentration SW480 [9] | effect of TRFi addition on IL-6 concentration SW620 [10]
1 | C[C@@H]1CC[C@H]2[C@@H](C)C(=O)O[C@@H]3O[C@@]4(C)CC[C@@H]1[C@]32OO4 [ART, Artemisinin] | 39 ± 2.75 µM | 42.8 ± 4.6 µM | 187 µM | 203 ± 16.2 µM | no cytotoxic effect | 39 ± 2.8% | 48 ± 2.8% | 90% | 80.8% | 25.68% | – | – | – | – | – | – | –
2 | C[C@H]1[C@@H](O)O[C@@H]2O[C@@]3(C)CC[C@H]4[C@H](C)CC[C@@H]1[C@@]24OO3 [DHA, dihydroartemisinin] | 11.4 ± 1.67 µM | 11.9 ± 2.3 µM | 129 µM | 116 ± 5.5 µM | no cytotoxic effect | 35 ± 1.8% | 42 ± 2.1% | 90% | 73.7% | 42.80% | 60.7% | 72.4% | 45% | 24% | 40% | – | –
3 | COc1cccc2c1C(=O)c1c(O)c3c(c(O)c1C2=O)C[C@@](O)(C(=O)CO)C[C@@H]3O[C@H]1C[C@H](N)[C@H](O)[C@H](C)O1 [DOX, doxorubicin] | 0.75 ± 0.1 µM | – | – | 0.29 ± 0.1 µM | – | – | – | – | – | – | – | – | – | – | – | – | –
4 | TRFi: holotransferrin, iron-binding protein added to culture medium at 50 µM | – | – | – | – | – | – | – | – | – | – | – | – | – | – | – | increased IL-6 concentration | increased IL-6 concentration
